Measured values from patent US10584128B2, “Bicyclic dihydropyrimidine-carboxamide derivatives as Rho-Kinase inhibitors” (CHIESI FARMACEUTICI S.p.A., priority 2016, dated 2020).

How the values were obtained:
Rho kinase 2 = Rho kinase 2 (Homo sapiens, UniProt O75116); experiment: In vitro Rho kinase inhibitory activity assay (ADP-Glo kit, Myelin Basic Protein substrate); type: biochemical; details: 10 μM ATP, 25° C., read-out: ROCK2 inhibitory activity (Ki, range of activity)
Method: (§1) The effectiveness of compounds of the present invention to inhibit Rho kinase activity can be determined in a 10 μl assay containing 40 mM Tris pH7.5, 20 mM MgCl2 0.1 mg/ml BSA, 50 μM DTT and 2.5 μM peptide substrate (Myelin Basic Protein) using an ADP-Glo kit (Promega). Compounds were dissolved in DMSO such that the final concentration of DMSO was 1% in the assay. All reactions/incubations are performed at 25° C. Compound (2 ul) and either Rho kinase 1 or 2 (4 μl) were mixed and incubated for 30 mins. Reactions were initiated by addition of ATP (4 μl) such that the final concentration of ATP in the assay was 10 μM. After a 1 hour incubation 10 μl of ADP-Glo Reagent was added and after a further 45 minute incubation 20 ul of Kinase Detection Buffer was added and the mixture incubated for a further 30 minutes. The luminescent signal was measured on a luminometer. […] Compounds were tested in dose-response format and the inhibition of kinase activity was calculated at each concentration of compound. To determine the IC50 (concentration of compound required to inhibit 50% of the enzyme activity) data were fit to a plot of % inhibition vs Log10 compound concentration using a sigmoidal fit with a variable slope and fixing the maximum to 100% and the minimum to 0%. To determine the Ki values the Cheng-Prusoff equation was utilized (Ki=IC50/(1+[S]/Km).

Rho kinase 1 = Rho kinase 1 (Homo sapiens, UniProt Q13464); experiment: as above; type: biochemical; details: 10 μM ATP, 25° C., read-out: ROCK1 inhibitory activity (Ki, range of activity)
Method: as §1

Rho kinase 1, sequence (Q13464 whole entry): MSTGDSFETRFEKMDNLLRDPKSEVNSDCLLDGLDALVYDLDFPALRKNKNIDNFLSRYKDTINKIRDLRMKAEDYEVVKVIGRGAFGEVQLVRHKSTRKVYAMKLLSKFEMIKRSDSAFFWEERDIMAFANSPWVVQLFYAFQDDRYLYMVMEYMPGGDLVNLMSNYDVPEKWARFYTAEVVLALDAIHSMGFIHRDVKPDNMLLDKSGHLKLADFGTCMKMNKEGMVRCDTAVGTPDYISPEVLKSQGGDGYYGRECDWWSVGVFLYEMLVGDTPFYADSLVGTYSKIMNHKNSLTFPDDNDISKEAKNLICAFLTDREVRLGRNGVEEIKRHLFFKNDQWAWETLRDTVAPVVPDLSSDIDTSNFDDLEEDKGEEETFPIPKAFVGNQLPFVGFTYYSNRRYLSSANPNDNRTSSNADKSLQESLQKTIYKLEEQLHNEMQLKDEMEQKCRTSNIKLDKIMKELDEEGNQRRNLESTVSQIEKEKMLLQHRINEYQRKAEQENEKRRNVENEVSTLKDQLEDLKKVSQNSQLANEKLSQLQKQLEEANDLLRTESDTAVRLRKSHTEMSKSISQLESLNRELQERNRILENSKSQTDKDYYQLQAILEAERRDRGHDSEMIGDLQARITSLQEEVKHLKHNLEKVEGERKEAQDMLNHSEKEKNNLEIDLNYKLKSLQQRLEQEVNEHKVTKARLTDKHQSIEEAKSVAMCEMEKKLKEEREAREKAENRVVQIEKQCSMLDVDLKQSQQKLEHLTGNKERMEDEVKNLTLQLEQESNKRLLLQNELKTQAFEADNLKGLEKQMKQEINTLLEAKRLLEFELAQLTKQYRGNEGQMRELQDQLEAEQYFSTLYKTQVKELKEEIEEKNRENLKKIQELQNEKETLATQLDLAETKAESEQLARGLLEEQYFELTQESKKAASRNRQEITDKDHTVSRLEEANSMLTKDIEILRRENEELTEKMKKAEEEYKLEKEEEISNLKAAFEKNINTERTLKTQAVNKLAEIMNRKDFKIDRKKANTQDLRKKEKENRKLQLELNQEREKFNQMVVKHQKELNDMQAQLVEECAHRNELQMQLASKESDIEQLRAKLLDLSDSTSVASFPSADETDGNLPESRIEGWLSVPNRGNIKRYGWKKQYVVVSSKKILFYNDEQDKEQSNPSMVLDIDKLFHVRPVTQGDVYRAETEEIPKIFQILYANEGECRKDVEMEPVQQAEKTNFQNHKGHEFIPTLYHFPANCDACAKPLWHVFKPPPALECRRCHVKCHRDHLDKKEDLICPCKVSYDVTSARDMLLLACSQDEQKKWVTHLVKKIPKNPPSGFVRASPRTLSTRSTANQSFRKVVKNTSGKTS
Rho kinase 2, sequence (O75116 whole entry): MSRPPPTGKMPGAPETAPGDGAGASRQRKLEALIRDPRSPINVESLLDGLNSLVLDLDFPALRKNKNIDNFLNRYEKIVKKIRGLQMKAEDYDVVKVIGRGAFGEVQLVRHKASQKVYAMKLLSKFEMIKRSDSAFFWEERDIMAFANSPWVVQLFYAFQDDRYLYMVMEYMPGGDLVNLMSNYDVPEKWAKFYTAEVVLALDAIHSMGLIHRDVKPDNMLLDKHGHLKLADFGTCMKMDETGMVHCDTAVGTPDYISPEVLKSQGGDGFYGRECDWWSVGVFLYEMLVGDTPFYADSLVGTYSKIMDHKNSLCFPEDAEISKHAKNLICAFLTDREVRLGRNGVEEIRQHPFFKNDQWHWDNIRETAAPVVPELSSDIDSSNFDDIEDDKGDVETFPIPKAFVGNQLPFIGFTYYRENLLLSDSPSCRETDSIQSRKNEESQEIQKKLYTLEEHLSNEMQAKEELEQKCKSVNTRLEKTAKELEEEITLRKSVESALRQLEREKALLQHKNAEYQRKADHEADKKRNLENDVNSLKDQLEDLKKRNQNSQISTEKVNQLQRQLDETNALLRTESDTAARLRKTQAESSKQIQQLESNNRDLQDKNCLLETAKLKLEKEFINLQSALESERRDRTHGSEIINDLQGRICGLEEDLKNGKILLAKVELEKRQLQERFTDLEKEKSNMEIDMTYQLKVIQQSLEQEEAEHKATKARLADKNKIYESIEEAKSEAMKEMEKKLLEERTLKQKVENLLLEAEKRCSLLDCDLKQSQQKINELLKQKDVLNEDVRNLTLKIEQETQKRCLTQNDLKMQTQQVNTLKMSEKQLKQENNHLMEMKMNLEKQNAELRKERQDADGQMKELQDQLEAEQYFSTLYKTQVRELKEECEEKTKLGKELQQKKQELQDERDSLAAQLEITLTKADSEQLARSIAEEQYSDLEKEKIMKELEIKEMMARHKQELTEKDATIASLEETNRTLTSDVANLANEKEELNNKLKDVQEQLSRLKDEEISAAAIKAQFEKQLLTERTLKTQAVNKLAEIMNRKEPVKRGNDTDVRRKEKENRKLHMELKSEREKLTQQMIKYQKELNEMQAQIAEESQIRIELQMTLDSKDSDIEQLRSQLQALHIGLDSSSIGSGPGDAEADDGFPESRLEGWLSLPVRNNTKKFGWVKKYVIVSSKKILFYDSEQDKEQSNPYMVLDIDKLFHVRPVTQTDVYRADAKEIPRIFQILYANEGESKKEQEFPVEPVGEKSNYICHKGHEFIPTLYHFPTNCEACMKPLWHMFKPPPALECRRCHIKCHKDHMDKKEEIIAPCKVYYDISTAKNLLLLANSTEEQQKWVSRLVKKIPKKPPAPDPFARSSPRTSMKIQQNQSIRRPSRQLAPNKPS

Row | SMILES | Ki (Rho kinase 2) [nM] | Ki (Rho kinase 1) [nM]
1 | CC1=C(C(=O)Nc2ccc3cnccc3c2)C(c2ccc(C(F)(F)F)c(F)c2)n2nc(C(=O)NCCN3CCCCC3)cc2N1 (single isomer, unassigned) [77B] | < 50 | < 50
2 | CC1=C(C(=O)Nc2ccc3cnccc3c2)C(c2ccc(C(F)(F)F)cc2)n2nc(CO)cc2N1 (single isomer, unassigned) [Example 43A, 2-(hydroxymethyl)-N-(isoquinolin-6-yl)-5-methyl-7-(4-(trifluoromethyl)phenyl)-4,7-dihydropyrazolo[1,5-a]pyrimidine-6-carboxamide] | 50 to 500 | > 500
3 | CC1=C(C(=O)Nc2ccc3cnccc3c2)C(c2ccc(C)c(F)c2)n2nc(CO)cc2N1 (centres unmarked) [Example 58, 7-(3-fluoro-4-methylphenyl)-2-(hydroxymethyl)-N-(isoquinolin-6-yl)-5-methyl-4,7-dihydropyrazolo[1,5-a]pyrimidine-6-carboxamide] | < 50 | < 50
4 | CC1=C(C(=O)Nc2ccc3cnccc3c2)C(c2ccc(C(F)(F)F)c(F)c2)n2nc(C(=O)N(C)CCN(C)C)cc2N1 (centres unmarked) [Example 80, N2-(2-(dimethylamino)ethyl)-7-(3-fluoro-4-(trifluoromethyl)phenyl)-N6-(isoquinolin-6-yl)-N2,5-dimethyl-4,7-dihydropyrazolo[1,5-a]pyrimidine-2,6-dicarboxamide] | < 50 | < 50
5 | CC1=C(C(=O)Nc2ccc3[nH]ncc3c2)C(c2ccc(Cl)cc2)n2nnnc2N1 (single isomer, unassigned) [Example 24B, 7-(4-chlorophenyl)-N-(1H-indazol-5-yl)-5-methyl-4,7-dihydrotetrazolo[1,5-a]pyrimidine-6-carboxamide] | 50 to 500 | 50 to 500
6 | CC1=C(C(=O)Nc2ccc3cnccc3c2)C(c2ccc(C(F)(F)F)c(F)c2)n2nc(CNC(=O)CCN3CCCCC3)cc2N1 (single isomer, unassigned) [Example 138B, 7-(3-Fluoro-4-(trifluoromethyl)phenyl)-N-(isoquinolin-6-yl)-5-methyl-2-((3-(piperidin-1-yl)propanamido)methyl)-4,7-dihydropyrazolo[1,5-a]pyrimidine-6-carboxamide] | > 500 | > 500

The next lines start with the values.

Row | Ki (Rho kinase 2) [nM] | Ki (Rho kinase 1) [nM] | SMILES
7 | < 50 | < 50 | CC1=C(C(=O)Nc2ccc3cnccc3c2)C(c2ccc(C(F)(F)F)c(F)c2)n2nc(C(=O)N(C)CCN3CCCCC3)cc2N1 (single isomer, unassigned) [Example 78B, 7-(3-fluoro-4-(trifluoromethyl)phenyl)-N6-(isoquinolin-6-yl)-N2,5-dimethyl-N2-(2-(piperidin-1-yl)ethyl)-4,7-dihydropyrazolo[1,5-a]pyrimidine-2,6-dicarboxamide]
8 | 50 to 500 | 50 to 500 | CC1=C(C(=O)Nc2ccc3cnccc3c2)C(c2ccc(Cl)cc2)n2nc(CO)cc2N1 (single isomer, unassigned) [Example 62B, 7-(4-chlorophenyl)-2-(hydroxymethyl)-N-(isoquinolin-6-yl)-5-methyl-4,7-dihydropyrazolo[1,5-a]pyrimidine-6-carboxamide]
9 | < 50 | < 50 | CC1=C(C(=O)Nc2ccc3[nH]ncc3c2)C(c2ccc(C(F)(F)F)cc2)n2nc(CN)cc2N1 (centres unmarked) [Example 111, 2-(aminomethyl)-N-(1H-indazol-5-yl)-5-methyl-7-(4-(trifluoromethyl)phenyl)-4,7-dihydropyrazolo[1,5-a]pyrimidine-6-carboxamide]
10 | > 500 | > 500 | CC1=C(C(=O)Nc2ccc3cnccc3c2)C(c2ccc(C(F)(F)F)c(F)c2F)n2nc(CN(C)C)cc2N1 (single isomer, unassigned) [Example 122a, 7-(2,3-difluoro-4-(trifluoromethyl)phenyl)-2-((dimethylamino)methyl)-N-(isoquinolin-6-yl)-5-methyl-4,7-dihydropyrazolo[1,5-a]pyrimidine-6-carboxamide]
